Measured values reported in US11542316B2, “S-Arrestin peptides and therapeutic uses thereof” (APITOPE INTERNATIONAL NV, priority 2017, dated 2023).
“Also recorded” adds a separate entry of the source. Ends that are not written are not given here.

Molecular target: T1, MHC II molecules present on dendritic cells (DC) (Homo sapiens, UniProt P01903+P01911, A100K/A102G/A103R/F55Y/I96L/K41T/P40S/Q125H/Q178H/Q39Y/R42S/S66N/T106N/T262R/W38E/Y61H)
T1 construct: from tissue; host or cells: CD11c+ dendritic cells from spleens of DR3tg mice (genomic HLA-DRA and DRB1*0301 transgenes, no mouse MHC class II)
Assay: In vivo presentation experiment, DR3tg mice
Conditions: 100 μg peptide s.c., CD11c+ cells harvested after 2 hours, co-culture 48 hours
Description: FIG. 14: In vivo presentation protocol. Mice are immunized with peptide/CFA and a T cell line is established. For this, ten days after immunization the LN and spleens are harvested and cultured with different concentrations of peptide; 2×10^6 cells/ml APC+1×10^6 cells/ml CD4^+ cells per well. At day 7 the cells are re-stimulated with fresh APC and the same concentrations of peptide. After 14 to 21 days, CD4^+ cells are isolated from these cultures by magnetic bead isolation. These CD4^+ cells are co-cultured with CD11c^+ (dendritic) cells isolated by magnetic bead isolation from spleens of mice s.c. injected with peptide 2 hours before. Control mice receive a s.c. injection of PBS. After 48 hours, supernatant is collected and cytokine response (IFN-γ) is measured. LN, lymph nodes; APC, Antigen presenting cell; s.c. subcutaneous.
FIG. 15: In vivo presentation of HIP-115 nested peptides in DR3 mice. DR3 mice were immunized with HIP-115/CFA and a T cell line was established. For this, ten days after immunization the LN and spleens were harvested and cultured with different concentrations of peptide (0.1-1-2.5 and 5 μg/ml); 2×10^6 cells/ml APC+1×10^6 cells/ml CD4^+ cells per well. At day 7 the cells were re-stimulated with fresh APC and the same concentrations of peptide. After 14 days, CD4^+ cells were isolated from these cultures by magnetic bead isolation. These CD4^+ cells were co-cultured with CD11c (dendritic) cells isolated by magnetic bead isolation from spleens of DR3 mice s.c. injected with peptides HIP-115NE3, HIP-115NE3-KKK or PBS 2 hours before. After 48 hours, supernatant was collected and IFN-γ production was measured by ELISA. Data are presented as the mean IFN-γ concentration±SEM (One-way ANOVA with Dunn's multiple comparison, * p<0.05, ** p<0.01). LN, lymph nodes; APC, Antigen presenting cell; s.c. subcutaneous.
FIG. 16: In vivo presentation of HIP-24 nested peptides in DR3 mice. DR3 mice were immunized with HIP-241125+HIP-24DG/CFA and a T cell line was established. For this, ten days after immunization the LN and spleens were harvested and cultured with different concentrations of peptide (0.3-1.2-3 and 6 μg/ml); 2×10^6 cells/ml APC+1×10^6 cells/ml CD4^+ cells per well. At day 7 the cells were re-stimulated with fresh APC and the same concentrations of peptide. After 14 days, CD4^+ cells were isolated from these cultures by magnetic bead isolation. […] After 48 hours, supernatant was collected and IFN-γ production was measured by ELISA. […]
FIG. 18: In vivo presentation of HIP-17GN nested peptides in DR3 mice. […] After 48 hours, supernatant was collected and IFN-γ production was measured by ELISA. […]

T1 sequence (P01903 26-254): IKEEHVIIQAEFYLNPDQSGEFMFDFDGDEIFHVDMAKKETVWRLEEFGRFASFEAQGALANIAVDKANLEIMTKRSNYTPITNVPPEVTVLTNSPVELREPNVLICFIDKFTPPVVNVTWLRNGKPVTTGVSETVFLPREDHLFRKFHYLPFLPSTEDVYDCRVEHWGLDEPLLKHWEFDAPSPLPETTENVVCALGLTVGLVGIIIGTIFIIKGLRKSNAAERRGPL
T1 sequence (P01911 30-266 with the stated changes): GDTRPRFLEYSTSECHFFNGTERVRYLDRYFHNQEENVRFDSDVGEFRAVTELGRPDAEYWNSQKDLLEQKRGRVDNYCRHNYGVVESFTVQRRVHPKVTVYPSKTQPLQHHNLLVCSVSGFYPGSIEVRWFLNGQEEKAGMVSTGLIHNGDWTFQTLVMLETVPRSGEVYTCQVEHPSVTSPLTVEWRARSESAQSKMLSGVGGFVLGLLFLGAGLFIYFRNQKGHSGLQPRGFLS

Substance	picked up and presented by MHC II on dendritic cells to peptide-specific T cells (IFN-γ production)
KKKLTFRRDLYFSRVQVYKKK-NH2 [HIP-17J-KKK]	presented by DC to T cells; also recorded: A certain degree of activation
LPLLANNRERRGIA-NH2 [HIP-24HM3, LPLLANNRERRGIA]	presented by DC to T cells
VIFKKISRDKSVTIYLG-NH2 [HIP-115NE3, VIFKKISRDKSVTIYLG]	not able to cause this activation
KKKVIFKKISRDKSVTIYLGKKK-NH2 [HIP-115NE3-KKK]	bound to the MHC II on DC in situ and presented to peptide-specific T cells
